# Test results from PubChem BioAssay AID328 (DTP/NCI, 2004).
# Several values for one entry are separate records, joined by “and”; a condition that tells them apart may be missing. Equal entries are not always repeated. Toxic doses and inconclusive results are not listed.
# Test system: BDF1 mice, P388 leukemia ip, median survival T/C
# Experiment: NCI In Vivo Anticancer Drug Screen. Data for tumor model P388 Leukemia (intraperitoneal) in B6D2F1 (BDF1) mice
# Settings: endpoint: median survival time, higher = longer survival
# Outline: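 Vehicle-dosed animals serve as the reference; survival of compound-dosed, tumour-implanted mice is divided by it.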
# [1] = dose: 200.0 mg/kg/injection, schedule: Q01DX009 (ip), vehicle: saline with Tween-80
# [2] = dose: 50.0 mg/kg/injection, schedule: Q01DX009 (ip), vehicle: Klucel (hydroxypropylcellulose) (HPC)
# [3] = dose: 100.0 mg/kg/injection, schedule: Q01DX009 (ip), vehicle: Klucel (hydroxypropylcellulose) (HPC)
# [4] = dose: 100.0 mg/kg/injection, schedule: Q04DX003 (ip), vehicle: Klucel (hydroxypropylcellulose) (HPC)
# [5] = dose: 200.0 mg/kg/injection, schedule: Q01DX009 (ip), vehicle: Klucel (hydroxypropylcellulose) (HPC)
# [6] = dose: 200.0 mg/kg/injection, schedule: Q04DX003 (ip), vehicle: Klucel (hydroxypropylcellulose) (HPC)
# [7] = dose: 100.0 mg/kg/injection, schedule: Q04DX003 (ip), vehicle: saline with Tween-80
# [8] = dose: 200.0 mg/kg/injection, schedule: Q04DX003 (ip), vehicle: saline with Tween-80
# [9] = dose: 400.0 mg/kg/injection, schedule: Q04DX003 (ip), vehicle: saline with Tween-80
smiles,measurement,setting,value
O/N=c1/ccn(O)c2ccccc12,T/C,"dose: 0.14 mg/kg/injection, schedule: Q01DX009 (ip), vehicle: saline",168 % of control
same,T/C,"dose: 0.19 mg/kg/injection, schedule: Q04DX003 (ip), vehicle: saline",116 % of control
same,T/C,"dose: 0.29 mg/kg/injection, schedule: Q04DX003 (ip), vehicle: saline",120 % of control
same,T/C,"dose: 0.34 mg/kg/injection, schedule: Q01DX009 (ip), vehicle: saline",155 % of control and 183 % of control and 190 % of control
same,T/C,"dose: 0.44 mg/kg/injection, schedule: Q04DX003 (ip), vehicle: saline",180 % of control
same,T/C,"dose: 0.51 mg/kg/injection, schedule: Q01DX009 (ip), vehicle: saline",162 % of control and 170 % of control and 195 % of control
same,T/C,"dose: 0.66 mg/kg/injection, schedule: Q04DX003 (ip), vehicle: saline",210 % of control
same,T/C,"dose: 1.0 mg/kg/injection, schedule: Q04DX003 (ip), vehicle: saline",172 % of control
same,T/C,"dose: 1.5 mg/kg/injection, schedule: Q04DX003 (ip), vehicle: saline",181 % of control
same,T/C,"dose: 4.65 mg/kg/injection, schedule: Q04DX003 (ip), vehicle: saline",173 % of control
same,T/C,"dose: 11.0 micrograms/kg/injection, schedule: Q01DX009 (ip), vehicle: saline",104 % of control
same,T/C,"dose: 22.0 micrograms/kg/injection, schedule: Q01DX009 (ip), vehicle: saline",108 % of control
same,T/C,"dose: 45.0 micrograms/kg/injection, schedule: Q01DX009 (ip), vehicle: saline",104 % of control
COC(=O)c1ccc(CSc2ccccc2NC(=S)Nc2cccc(C(F)(F)F)c2)o1,T/C,[1],90 % of control
COc1ccc(C=NCCN=Cc2ccc(OC)cc2)cc1,T/C,"dose: 100.0 mg/kg/injection, schedule: Q01DX001 (ip), vehicle: Klucel (hydroxypropylcellulose) (HPC)",109 % of control
same,T/C,"dose: 200.0 mg/kg/injection, schedule: Q01DX001 (ip), vehicle: Klucel (hydroxypropylcellulose) (HPC)",100 % of control
same,T/C,"dose: 400.0 mg/kg/injection, schedule: Q01DX001 (ip), vehicle: Klucel (hydroxypropylcellulose) (HPC)",95 % of control
O=C(NNC(=O)OCc1ccccc1)OCc1ccccc1,T/C,[2],96 % of control
same,T/C,[3],96 % of control
same,T/C,[4],90 % of control
same,T/C,[5],92 % of control
same,T/C,[6],109 % of control
COc1cc2ccc(C(C)NCC#N)cc2cc1OC (configuration not stated),T/C,[2],109 % of control
same,T/C,"dose: 50.0 mg/kg/injection, schedule: Q04DX003 (ip), vehicle: Klucel (hydroxypropylcellulose) (HPC)",100 % of control
same,T/C,[3],100 % of control
same,T/C,[4],95 % of control
same,T/C,[5],122 % of control
same,T/C,[6],95 % of control
O=C(CSc1ncnc2nc[nH]c12)c1ccccc1,T/C,"dose: 100.0 mg/kg/injection, schedule: Q01DX009 (ip), vehicle: saline with Tween-80",104 % of control
same,T/C,[7],86 % of control
same,T/C,[1],104 % of control
same,T/C,[8],100 % of control
same,T/C,"dose: 400.0 mg/kg/injection, schedule: Q01DX009 (ip), vehicle: saline with Tween-80",100 % of control
same,T/C,[9],91 % of control
O=C(Nc1ccc(Cl)c(Cl)c1)O/N=C/c1ccccn1,T/C,[7],100 % of control
same,T/C,[8],90 % of control
same,T/C,[9],95 % of control
CCCCCCCCCCCC[n+]1ccc(C)cc1C,T/C,"dose: 62.0 micrograms/kg/injection, schedule: Q01DX009 (ip), vehicle: saline",107 % of control
same,T/C,"dose: 125.0 micrograms/kg/injection, schedule: Q01DX009 (ip), vehicle: saline",102 % of control
same,T/C,"dose: 250.0 micrograms/kg/injection, schedule: Q01DX009 (ip), vehicle: saline",113 % of control
same,T/C,"dose: 500.0 micrograms/kg/injection, schedule: Q01DX009 (ip), vehicle: saline",116 % of control
CCCC(C(=O)OCCN1CCCC12CCCCC2)C1CCCC1 (configuration not stated),T/C,"dose: 12.5 mg/kg/injection, schedule: Q01DX009 (ip), vehicle: saline with Tween-80",107 % of control
same,T/C,"dose: 25.0 mg/kg/injection, schedule: Q01DX009 (ip), vehicle: saline with Tween-80",108 % of control
same,T/C,"dose: 50.0 mg/kg/injection, schedule: Q01DX009 (ip), vehicle: saline with Tween-80",119 % of control
O=C(O)COCc1ccccc1,T/C,"dose: 100.0 mg/kg/injection, schedule: Q01DX001 (ip), vehicle: saline sonified",100 % of control
same,T/C,"dose: 200.0 mg/kg/injection, schedule: Q01DX001 (ip), vehicle: saline sonified",104 % of control
same,T/C,"dose: 400.0 mg/kg/injection, schedule: Q01DX001 (ip), vehicle: saline sonified",117 % of control
